Molecules are shown by their SMILES.

This experiment addresses T1, Protein Tat (Human immunodeficiency virus type 1 group M subtype B (isolate PCV12)(HIV-1), UniProt P04326).
T1 sequence (P04326 whole entry): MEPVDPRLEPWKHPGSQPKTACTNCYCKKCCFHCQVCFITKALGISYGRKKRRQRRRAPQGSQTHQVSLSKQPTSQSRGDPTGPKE
In words: Inhibition of Tat peptide binding to HIV-1 TAR RNA. On the set-up: species or system Human immunodeficiency virus type 1 (CLONE 12).
With `NC1C[C@@H](N)[C@@H](O)[C@@H](O)C1O[C@@H]1OC(CNC(=O)c2ccc3ccc4cccc5ccc2c3c45)C(O)[C@H](O)[C@@H]1N` (some centres undefined), the IC50 amounted to 1700 nM.
`N=C(N)NCCCC(N)C(=O)NCC1O[C@@H](OC2C(N)C[C@@H](N)[C@@H](O)[C@H]2O)[C@@H](N)[C@@H](O)C1O` (some centres undefined) showed a 50% inhibitory concentration (IC50) of 600 nM.
The molecule `N=C(N)NCCCC(NC(=O)c1ccc2ccc3cccc4ccc1c2c34)C(=O)NCC1OC(OC2C(N)CC(N)C(O)C2O)C(N)C(O)C1O` (centres undefined) came in with an IC50 of 28 nM.
In turn, `NC[C@H]1OC(O[C@H]2[C@H](O)C(O)[C@H](N)C[C@@H]2N)C(N)[C@@H](O)[C@@H]1O` (single isomer, unassigned) [NEAMINE] had an IC50 of 28000 nM.
